According to patent EP1902732A1, “PROPHYLACTIC/THERAPEUTIC AGENT FOR HER2-EXPRESSING CANCER” (Takeda Pharmaceutical Company Limited, priority 2005, dated 2006):

Experiments:
[1] = system: phosphorylated S6 kinase (S6K); experiment: Western blotting of phosphorylated S6K in BT-474 cells; format: cell-based, human; settings: Example 7, two hours, antimycin 1-0.01 nmol/L, oligomycin 100-1 ng/mL, 2,4-dinitrophenol 300-3 µmol/L
Procedure: Human HER2-expressing human breast cancer cell line BT-474 (purchased from American Tissue Culture Collection (ATCC)) was seeded into a 24-multiwell plate (BT-474: 1.2 x 10^5 cells/well) and cultured overnight in a carbon dioxide gas incubator (5% CO2, 37°C). As an energy metabolism inhibitor having a mechanism that differed from that of rotenone, mitochondrial respiratory chain complex III-inhibiting compound antimycin (Wako Pure Chemical Industries) was added to final concentrations of 1, 0.3, 0.1, 0.03 and 0.01 nmol/L while continuing culture. Using another plate, mitochondrial respiratory chain complex V-inhibiting compound oligomycin (Wako Pure Chemical Industries) was added to final concentrations of 100, 30, 10, 3 and 1 ng/mL while continuing culture. In addition, 2,4-dinitrophenol was added to 300, 100, 30, 10 and 3 µmol/L while continuing culture. Two hours after the addition of the agent, the broth was removed and the cells were lysed with an SDS sample buffer (200 µL). Then, this cell lysate was used to perform western blotting analysis. Specifically, this cell lysate (8 µL) was separated by an SDS-PAGE method (gel concentration: 7.5-15%) (Analytical Biochemistry, No. 166, pp. 368-379, 1987) and transferred onto a nitrocellulose membrane (BioRad). Then, an antibody specific to phosphorylated HER2 (Cell signaling technology, Code# 2244), pACC antibody specific to phosphorylated acetyl-CoA carboxylase (ACC) (Cell signaling technology, Code# 3661) and anti-phosphorylated S6K antibody specific to phosphorylated S6 kinase (S6K) (Cell signaling technology, Code# 9209) were used to detect the antibody by chemiluminescent detection with an ECL system (Amersham) to quantify an amount of phosphorylated protein with LAS-1000 plus image analysis device (FUJIFILM).

DU145 = experiment: Viable cell count using Cell Counting Kit-F; format: cell-based; settings: HER2-nonexpressing cancer, five days of culture
HER2 = experiment: Western blotting of phosphorylated HER2 in BT-474 cells; format: cell-based, human
Procedure: Human HER2-expressing human breast cancer cell line BT-474 (purchased from American Tissue Culture Collection (ATCC)) was seeded into a 24-multiwell plate (BT-474: 1.2 x 10^5 cells/well), and cultured overnight in a carbon dioxide gas incubator (5% CO2, 37°C). A 4-fold dilution series of a mitochondrial respiratory chain complex inhibiting compound (complex I: rotenone, complex III: antimycin, complex V: oligomycin: Wako Pure Chemical Industries) was added starting from a final concentration of 1 µmol/L in 5 steps while continuing culture. After 2 hours, the broth was removed, and the cells were lysed with an SDS sample buffer (200 µL). Western blotting analysis was performed as follows. Specifically, this cell lysate (8 µL) was separated by an SDS-PAGE method (gel concentration: 7.5-15%) (Analytical Biochemistry, No. 166, pp. 368-379, 1987), and transferred to a nitrocellulose membrane (BioRad). Then, an antibody specific to phosphorylated HER2 (Cell signaling technology, Code# 2244), an anti-phosphorylated Akt antibody specific to downstream antiapoptotic signal transducing molecule Akt (Cell signaling technology, Code# 9271) and an anti-phosphorylated MAPK antibody specific to downstream proliferation signal transducing molecule MAPK (Cell signaling technology, Code# 9101) were used to detect the antibody with an ECL system (Amersham) to quantify the amount of phosphorylated protein by an image analysis.
Human HER2-expressing human cancer cell line BT-474 (purchased from ATCC) was seeded into a 24-multiwell plate (1.2 x 10^5 cells/well) and cultured overnight in a carbon dioxide gas incubator (20% O2, 5% CO2, 37°C). A 3-fold dilution series of metformin that activates AMPK (The Journal of Biological Chemistry, Vol. 279, No. 42, pp. 43940-43951, 2004) was added starting from a final concentration of 15 mmol/L in 5 steps while continuing culture. Two hours later, the broth was removed and the cells were lysed with an SDS sample buffer (200 µL). This cell lysate (8 µL) was separated by an SDS-PAGE method (gel concentration: 7.5-15%) (Analytical Biochemistry, No. 166, pp. 368-379, 1987). Then, western blotting analysis was performed in the same manner as in Example 1 to quantify phosphorylated HER2, phosphorylated Akt and phosphorylated MAPK.
Human HER2-expressing human breast cancer cell line BT-474 (purchased from American Tissue Culture Collection (ATCC)) was seeded into a 24-multiwell plate (BT-474: 1.2 x 10^5 cells/well), and cultured overnight in a carbon dioxide gas incubator (5% CO2, 37°C). Mitochondrial respiratory chain complex 1-inhibiting compound rotenone (Wako Pure Chemical Industries) was added in 5 steps at final concentrations of 1, 0.333, 0.111, 0.033 and 0.011 µmol/L while continuing culture. Two hours later, the broth was removed and the cells were lysed with an SDS sample buffer (200 µL). Then, this cell lysate was used to perform western blotting analysis. Specifically, this cell lysate (8 µL) was separated by an SDS-PAGE method (gel concentration: 7.5-15%) (Analytical Biochemistry, No. 166, pp. 368-379, 1987) and transferred to a nitrocellulose membrane (BioRad). Then, an antibody specific to phosphorylated HER2 (Cell signaling technology, Code# 2244), an AMPK antibody specific to AMPK (Cell signaling technology, Code# 2535) and an anti-phosphorylated AMPK antibody specific to phosphorylated AMPK (Cell signaling technology, Code# 2532) were used to detect the antibody by chemiluminescent detection with an ECL system (Amersham) to quantify an amount of phosphorylated protein with LAS-1000 plus image analysis device (FUJIFILM).
Human HER2-expressing human breast cancer cell line BT-474 (purchased from American Tissue Culture Collection (ATCC)) was seeded into a 24-multiwell plate (BT-474: 1.2 x 10^5 cells/well) and cultured overnight in a carbon dioxide gas incubator (5% CO2, 37°C). […]

[2] = Example 7, two hours, antimycin 1-0.01 nmol/L, oligomycin 100-1 ng/mL, 2,4-dinitrophenol 300-3 µmol/L

Molecule	phosphorylation of S6K [1]	minimum concentrations for inhibiting cell proliferation for 50% or more (DU145) [mmol/L]	HER2 phosphorylation (HER2; [2])	HER2 phosphorylation (HER2; Example 2, 4-fold dilution series from 1 µmol/L in 5 steps, 2 hours)
O=[N+]([O-])c1ccc(O)c([N+](=O)[O-])c1 [2,4-dinitrophenol]	suppressed	0.067	decreased dose-dependently	
antimycin	suppressed	>0.0001	decreased dose-dependently	suppression of HER2 phosphorylation was confirmed
